Tested on: 186277-243-T-J2-PDC complex spheroids, viability
Test: Anticancer human tumor 186277-243-T-J2-PDC patient-derived colon adenocarcinoma cell line growth inhibition [RAS]
Conditions: for IC50: curve of first compound; for viability, T/C: stronger effect = lower value; active = viability on the fitted dose curve at most 10% of control; inactive = the rest
How it was run: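 Tumour cells grown as complex spheroids with HUVEC endothelial cells and mesenchymal stem cells, treated with RAS pathway inhibitor combinations. Each agent spans half-log steps from near clinical Cmax, or 10 microM where Cmax is unknown.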

[1] = second compound 0.000949 µM, first compound 0.0316 µM
[2] = second compound 0.000949 µM, first compound 0.1 µM
[3] = second compound 0.000949 µM, first compound 0.316 µM
[4] = second compound 0.000949 µM, first compound 1 µM
[5] = second compound 0.000949 µM, first compound 3.16 µM
[6] = second compound 0.000949 µM, first compound 10 µM
[7] = second compound 0.003 µM, first compound 0.0316 µM
[8] = second compound 0.003 µM, first compound 0.1 µM
[9] = second compound 0.003 µM, first compound 0.316 µM
[10] = second compound 0.003 µM, first compound 1 µM
[11] = second compound 0.003 µM, first compound 3.16 µM
[12] = second compound 0.003 µM, first compound 10 µM
[13] = second compound 0.00949 µM, first compound 0.0316 µM
[14] = second compound 0.00949 µM, first compound 0.1 µM
[15] = second compound 0.00949 µM, first compound 0.316 µM
[16] = second compound 0.00949 µM, first compound 1 µM
[17] = second compound 0.00949 µM, first compound 3.16 µM
[18] = second compound 0.00949 µM, first compound 10 µM
[19] = second compound 0.03 µM, first compound 0.0316 µM
[20] = second compound 0.03 µM, first compound 0.1 µM
[21] = second compound 0.03 µM, first compound 0.316 µM
[22] = second compound 0.03 µM, first compound 1 µM
[23] = second compound 0.03 µM, first compound 3.16 µM
[24] = second compound 0.03 µM, first compound 10 µM
[25] = second compound 0.0949 µM, first compound 0.0316 µM
[26] = second compound 0.0949 µM, first compound 0.1 µM
[27] = second compound 0.0949 µM, first compound 0.316 µM
[28] = second compound 0.0949 µM, first compound 1 µM
[29] = second compound 0.0949 µM, first compound 3.16 µM
[30] = second compound 0.0949 µM, first compound 10 µM
[31] = second compound 0.3 µM, first compound 0.0316 µM
[32] = second compound 0.3 µM, first compound 0.1 µM
[33] = second compound 0.3 µM, first compound 0.316 µM
[34] = second compound 0.3 µM, first compound 1 µM
[35] = second compound 0.3 µM, first compound 3.16 µM
[36] = second compound 0.3 µM, first compound 10 µM
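Also: spheroids exposed to compounds for 7 days before viability read.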

CCC(CC)c1cc(NC2CCC(N)C2)n2nccc2n1 (stereo unspecified) + CCn1c(-c2cc(N3CCN(C)CC3)cnc2C(C)OC)c2c3cc(ccc31)-c1csc(n1)CC(NC(=O)C1CC1C)C(=O)N1CCCC(N1)C(=O)OCC(C)(C)C2
active: viability, T/C [5] 4.75% | viability, T/C [6] 0.22% | viability, T/C [11] 3.89% | viability, T/C [12] 0.17% | viability, T/C [17] 3.19% | viability, T/C [18] 0.17% | viability, T/C [22] 9.82% | viability, T/C [23] 3.01% | viability, T/C [24] 0.19% | viability, T/C [26] 8.25% | viability, T/C [27] 9.17% | viability, T/C [28] 5.58% | viability, T/C [29] 2.44% | viability, T/C [30] 0.29% | viability, T/C [31] 7.09% | viability, T/C [32] 6.68% | viability, T/C [33] 6.45% | viability, T/C [34] 4.66% | viability, T/C [35] 2.73% | viability, T/C [36] 0.31%
1840 nM: IC50 (second compound 0.000949 µM)
1730 nM: IC50 (second compound 0.003 µM)
inactive: viability, T/C [1] 123% | viability, T/C [2] 115% | viability, T/C [3] 109% | viability, T/C [4] 101% | viability, T/C [7] 99.4% | viability, T/C [8] 100% | viability, T/C [9] 107% | viability, T/C [10] 91.9% | viability, T/C [13] 55.5% | viability, T/C [14] 54.6% | viability, T/C [15] 57.5% | viability, T/C [16] 33% | viability, T/C [19] 15.8% | viability, T/C [20] 17% | viability, T/C [21] 18.1% | viability, T/C [25] 8.36%
< 31.6 nM: IC50 (second compound 0.03 µM) | IC50 (second compound 0.0949 µM) | IC50 (second compound 0.3 µM)
419 nM: IC50 (second compound 0.00949 µM)

Cc1nc(N2CCC3(CC2)COC(C)C3N)c(CO)nc1Sc1ccnc(N)c1Cl (stereo unspecified) + CCn1c(-c2cc(N3CCN(C)CC3)cnc2C(C)OC)c2c3cc(ccc31)-c1csc(n1)CC(NC(=O)C1CC1C)C(=O)N1CCCC(N1)C(=O)OCC(C)(C)C2
inactive: viability, T/C [1] 94.6% | viability, T/C [2] 110% | viability, T/C [3] 76.3% | viability, T/C [4] 30.1% | viability, T/C [7] 91.2% | viability, T/C [8] 58.7% | viability, T/C [9] 18.3% | viability, T/C [13] 27.1% | viability, T/C [14] 13.6%
128 nM: IC50 (second compound 0.003 µM)
< 31.6 nM: IC50 (second compound 0.00949 µM) | IC50 (second compound 0.03 µM) | IC50 (second compound 0.0949 µM) | IC50 (second compound 0.3 µM)
616 nM: IC50 (second compound 0.000949 µM)
active: viability, T/C [5] 9.66% | viability, T/C [6] 5.87% | viability, T/C [10] 8.06% | viability, T/C [11] 4.43% | viability, T/C [12] 2.87% | viability, T/C [15] 6.12% | viability, T/C [16] 4.02% | viability, T/C [17] 3.42% | viability, T/C [18] 2.67% | viability, T/C [19] 9.41% | viability, T/C [20] 7.94% | viability, T/C [21] 4.32% | viability, T/C [22] 3.62% | viability, T/C [23] 2.89% | viability, T/C [24] 2.28% | viability, T/C [25] 5.71% | viability, T/C [26] 4.9% | viability, T/C [27] 3.65% | viability, T/C [28] 3.26% | viability, T/C [29] 2.76% | viability, T/C [30] 1.95% | viability, T/C [31] 4.72% | viability, T/C [32] 4.35% | viability, T/C [33] 3.45% | viability, T/C [34] 3.1% | viability, T/C [35] 2.4% | viability, T/C [36] 1.92%

NC1c2ccccc2OC12CCN(c1cnc3c(N4CCCc5ncccc54)n[nH]c3n1)CC2 (stereo unspecified) + CCn1c(-c2cc(N3CCN(C)CC3)cnc2C(C)OC)c2c3cc(ccc31)-c1csc(n1)CC(NC(=O)C1CC1C)C(=O)N1CCCC(N1)C(=O)OCC(C)(C)C2
54.2 nM: IC50 (second compound 0.000949 µM)
inactive: viability, T/C [1] 70.1% | viability, T/C [2] 26.9% | viability, T/C [7] 25.1%
< 31.6 nM: IC50 (second compound 0.003 µM) | IC50 (second compound 0.00949 µM) | IC50 (second compound 0.03 µM) | IC50 (second compound 0.0949 µM) | IC50 (second compound 0.3 µM)
active: viability, T/C [3] 6.05% | viability, T/C [4] 3.49% | viability, T/C [5] 2.69% | viability, T/C [6] 2.5% | viability, T/C [8] 6.27% | viability, T/C [9] 3.3% | viability, T/C [10] 2.57% | viability, T/C [11] 2.3% | viability, T/C [12] 1.8% | viability, T/C [13] 7.02% | viability, T/C [14] 3.42% | viability, T/C [15] 2.63% | viability, T/C [16] 1.94% | viability, T/C [17] 1.79% | viability, T/C [18] 1.61% | viability, T/C [19] 3.98% | viability, T/C [20] 3.86% | viability, T/C [21] 2.26% | viability, T/C [22] 1.79% | viability, T/C [23] 3.5% | viability, T/C [24] 1.52% | viability, T/C [25] 3.58% | viability, T/C [26] 2.71% | viability, T/C [27] 2.03% | viability, T/C [28] 1.94% | viability, T/C [29] 1.81% | viability, T/C [30] 1.53% | viability, T/C [31] 3.17% | viability, T/C [32] 2.52% | viability, T/C [33] 1.83% | viability, T/C [34] 1.56% | viability, T/C [35] 1.77% | viability, T/C [36] 1.56%
